Data from ChEMBL document CHEMBL3046520, “Synthesis of novel 2-phenyl-3-[2-(substituted amino) ethylamino] quinazolin-4(3H)-ones as a new class of H1-antihistaminic agents” (Med Chem Res, 2013).

What was measured:
Mus musculus [1] = assay: Induction of sedation-hypnotic activity in Mus musculus Albino Swiss (mouse) assessed as reduction in locomotor activity at 5 mg/kg, po measured after 2 hr by actophotometer; type: organism-based; set-up: dose 5 mg/kg, route oral; scale not given: the % may be the effect or the level left; conditions: in vivo
Mus musculus [2] = assay: Induction of sedation-hypnotic activity in Mus musculus Albino Swiss (mouse) assessed as reduction in locomotor activity at 5 mg/kg, po measured after 3 hr by actophotometer; type: organism-based; set-up: dose 5 mg/kg, route oral; scale not given: the % may be the effect or the level left; conditions: in vivo
Cavia porcellus [3] = assay: In vivo H1-antihistaminic activity in conscious Cavia porcellus Dunkin-Hartley (guinea pig) assessed as protection against histamine-induced bronchospasm at 10 mg/kg, po; type: functional
Cavia porcellus [4] = assay: In vivo H1-antihistaminic activity in Cavia porcellus Dunkin-Hartley (guinea pig) assessed as time of onset of convulsion at 10 mg/kg, po; type: functional
Mus musculus [5] = assay: Induction of sedation-hypnotic activity in Mus musculus Albino Swiss (mouse) assessed as reduction in locomotor activity at 5 mg/kg, po measured after 0.5 hr by actophotometer; type: organism-based; set-up: dose 5 mg/kg, route oral; scale not given: the % may be the effect or the level left; conditions: in vivo
Mus musculus [6] = assay: Induction of sedation-hypnotic activity in Mus musculus Albino Swiss (mouse) assessed as reduction in locomotor activity at 5 mg/kg, po measured after 1 hr by actophotometer; type: organism-based; set-up: dose 5 mg/kg, route oral; scale not given: the % may be the effect or the level left; conditions: in vivo
Cavia porcellus [7] = assay: In vivo H1-antihistaminic activity in Cavia porcellus Dunkin-Hartley (guinea pig) assessed as time of onset of convulsion at 25 mg/kg, ip; type: functional; conditions: route intraperitoneal
Cavia porcellus [8] = assay: In vivo H1-antihistaminic activity in conscious Cavia porcellus Dunkin-Hartley (guinea pig) assessed as protection against histamine-induced bronchospasm at 25 mg/kg, ip; type: functional; conditions: route intraperitoneal

SMILES	Activity (Mus musculus [1])	Activity (Mus musculus [2])	Activity (Cavia porcellus [3])	Time (Cavia porcellus [4])	Activity (Mus musculus [5])	Activity (Mus musculus [6])	Time (Cavia porcellus [7])	Activity (Cavia porcellus [8])
O=c1c2ccccc2nc(-c2ccccc2)n1NCCNc1nccs1	9.85%	7.43%	72.12%	409 s	8.21%	9.52%		
O=c1c2ccccc2nc(-c2ccccc2)n1NCCN1CCOCC1	10.41%	7.32%	73.36%	428 s	8.43%	9.32%		
CN(C)CCC(c1ccc(Cl)cc1)c1ccccn1.O=C(O)/C=C\C(=O)O (stereo unspecified) [CHLORPHENIRAMINE MALEATE]	34.8%	29.58%			32.04%	38.8%	394 s	70.09%
O=c1c2ccccc2nc(-c2ccccc2)n1NCCNc1ccccc1	12.32%	10.11%	71.64%	402 s	11.32%	11.55%		
O=c1c2ccccc2nc(-c2ccccc2)n1NCCNCc1ccccc1	12.31%	8.9%	68.85%	366 s	10.42%	11.52%		
COc1ccc(NCCNn2c(-c3ccccc3)nc3ccccc3c2=O)cc1	10.94%	8.53%	71.35%	398 s	9.03%	10.43%		
O=c1c2ccccc2nc(-c2ccccc2)n1NCCNc1ccc(Cl)cc1	10.73%	6.48%	72.12%	416 s	8.28%	9.42%		
Cc1ccccc1NCCNn1c(-c2ccccc2)nc2ccccc2c1=O	10.38%	7.13%	69.6%	375 s	9.42%	9.88%		
O=c1c2ccccc2nc(-c2ccccc2)n1NCCNc1ccc([N+](=O)[O-])cc1	11.04%	8.32%	71.06%	394 s	9.51%	9.98%		
O=c1c2ccccc2nc(-c2ccccc2)n1NCCN1CCNCC1	10.79%	8.21%	73.67%	433 s	9.35%	10.42%		
COc1cccc(NCCNn2c(-c3ccccc3)nc3ccccc3c2=O)c1	11.63%	9.32%	70.15%	382 s	10.35%	10.89%		
